Experimental data reported in US5187305A, “S-nitroso-N-alkonoylpenicillamines” (Glaxo Inc., priority 1990, dated 1993).
pIC50: −log10 of the molar value.

Key:
[1] = orally (including sublingually), rectally, vaginally, nasally or transdermally; cited from earlier work
[2] = among nitrosothiols; cited from earlier work
[3] = compared with glyceryl trinitrate; cited from earlier work
RAT AORTA = assay: Aorta Vasodilation Assay, rat aorta rings (endothelium removed, phenylephrine-contracted); design: species or system male Sprague-Dawley rats; conditions: 20% O2, without methylene blue; for RELATIVE POTENCY: compared with nitroprusside; for pIC50: read-out: IC50 (relaxation)
Description: (§1) The thoracic aortas removed from euthanized male Sprague-Dawley rats (200-300 g) and male New Zealand, white rabbits (1.5-3.0 kg) are cleaned of adherent connective tissue and cut into rings 3 to 5 mm in length. Endothelium is removed by rolling the rings on moist filter paper. Rings are suspended in an organ chamber containing a physiological salt solution of (mM): NaCl, 118.4; KCl, 4.7; MgSO4.H2 O, 1.2; CaCl2.2H2 O, 2.5; KH2 PO4, 1.2; NaHCO3, 25.0; and dextrose, 11.1. The bathing solution is maintained at 37° C. and half of the tissues are aerated with 95% O2 /5% CO2 and half are aerated with 20% O2 /5% CO2 /75% N2. Tissues are mounted to isometric force displacement transducers and responses are recorded on a polygraph.
(§2) All rings are gradually stretched (over a 120 min. period) to a basal resting tension of 2 g (rat) and 4 g (rabbit), which is maintained throughout the assay. During the basal tension adjustment period, the rings are exposed to KCl (40 mM) two to three times to verify tissue contractility. During this period, the effectiveness of endothelium removal is confirmed by the absence of the characteristic relaxation seen with acetylcholine (1×10^-6 M) in endothelium-intact (but not endothelium-removed) rings contracted with phenylephrine (1×10^-7 M).
(§3) Methylene blue (1×10^-5 M) is added to half of the tissues aerated at 20% O2 and 95% O2 to inhibit basal cGMP accumulation. Phenylephrine (1×10^-7 M) is then added and the rings are allowed to obtain a stable contractile response after which time, SOD (100 U/mL) is added to the tissues. The test compound is then added in a cumulative fashion. After the stabilization of the response to the last concentration of the test compound, sodium nitroprusside (1×10^-4 M) is added to induce complete relaxation.

RABBIT AORTA = assay: Aorta Vasodilation Assay, rabbit aorta rings (endothelium removed, phenylephrine-contracted); design: species or system male New Zealand white rabbits; conditions: 20% O2, without methylene blue; for RELATIVE POTENCY: compared with nitroprusside; for pIC50: Oryctolagus cuniculus, read-out: IC50 (relaxation)
Description: as §1, §2, §3

| pIC50 (RAT AORTA) | pIC50 (RABBIT AORTA) | Compound | Absorption [1] | Stability [2] | Tolerance [3] | RELATIVE POTENCY (RAT AORTA) | RELATIVE POTENCY (RABBIT AORTA) |
| --- | --- | --- | --- | --- | --- | --- | --- |
| 6.85 | 6.80 | CC(=O)N[C@@H](C(=O)O)C(C)(C)SN=O [SNAP, N-acetyl-3-(nitrosothio)-D-valine] | poorly absorbed by these routes | one of the most stable nitrosothiols known | much less of a problem than tolerance of gyceryl trinitrate | 56 | 8.0 |
| 8.12 | 7.19 | CC(=O)N[C@@H](C(=O)Oc1ccccc1)C(C)(C)SN=O [(I), R^1 = PHENYL R^2 = METHYL, N-Acetyl-3-(nitrosothio)-D-valine phenyl ester] | – | – | – | 3.04 | 3.25 |

| Compound | pIC50 (RAT AORTA) | pIC50 (RABBIT AORTA) | Absorption [1] | Stability [2] | Tolerance [3] | RELATIVE POTENCY (RAT AORTA) | RELATIVE POTENCY (RABBIT AORTA) |
| --- | --- | --- | --- | --- | --- | --- | --- |
| O=[N+]([O-])OCC(CO[N+](=O)[O-])O[N+](=O)[O-] [NITROGLYCERIN, glyceryl trinitrate] | 8.03 | 7.64 | – | – | – | 3.76 | 1.15 |
